{"source": "the NIST ThermoML archive (doi:10.1021/je060260h)", "test": "refractive index (Na D-line) (dimensionless)", "conditions": "298.15 K; 101.33 kPa; Liquid; Standard Abbe refractometry", "note": "Numbers after ± are expanded uncertainties.", "data": [{"smiles": "CCCCn1cc[n+](C)c1.F[P-](F)(F)(F)(F)F", "note": "[1-butyl-3-methylimidazolium hexafluorophosphate]", "values": [{"measurement": "refractive index", "result": "1.40925 ± 0.00037"}]}, {"smiles": "CCCCO", "note": "[butan-1-ol]", "values": [{"measurement": "refractive index", "result": "1.39686 ± 0.00033"}]}]}
